Reference: patent US8431563B2 (priority 2010, dated 2013)
Like-named read-outs stand apart in the source and are kept apart here.

Tests used:
[1] = molecular target: T1, interaction between glucokinase (GK) and glucokinase regulatory protein (GKRP) (Homo sapiens, UniProt Q14397); assay: biochemical; assay type: binding
T1 sequence (Q14397 1-625): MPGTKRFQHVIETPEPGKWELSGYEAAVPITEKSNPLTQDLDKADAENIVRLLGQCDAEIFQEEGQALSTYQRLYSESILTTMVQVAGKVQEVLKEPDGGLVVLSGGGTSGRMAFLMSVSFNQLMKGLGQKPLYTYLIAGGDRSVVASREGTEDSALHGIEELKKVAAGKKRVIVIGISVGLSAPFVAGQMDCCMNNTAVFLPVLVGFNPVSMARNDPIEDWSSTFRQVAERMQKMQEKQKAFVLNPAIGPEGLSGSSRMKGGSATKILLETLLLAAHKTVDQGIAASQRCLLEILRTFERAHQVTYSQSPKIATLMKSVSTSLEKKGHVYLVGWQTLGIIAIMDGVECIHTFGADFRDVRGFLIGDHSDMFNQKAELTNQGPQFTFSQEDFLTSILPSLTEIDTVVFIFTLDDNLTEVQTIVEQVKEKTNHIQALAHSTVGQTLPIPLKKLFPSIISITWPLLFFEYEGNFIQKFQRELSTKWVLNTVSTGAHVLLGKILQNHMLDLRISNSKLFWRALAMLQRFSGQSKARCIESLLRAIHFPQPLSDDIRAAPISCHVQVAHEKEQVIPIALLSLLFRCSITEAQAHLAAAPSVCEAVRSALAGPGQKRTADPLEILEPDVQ
Procedure: GK-GKRP Binding Assay Protocol
This assay is used to directly measure the interaction between glucokinase (GK) and glucokinase regulatory protein (GKRP). Begin by preparing the following solutions. Assay Buffer: 20 mM Tris, pH 7.5/0.05% BSA/1 mM DTT/1 μM sorbitol-6-phosphate. […] Combine the following reagents in a white 96-well half area plate. Pipette 14 μl of the diluted avi-tagged GKRP into each well. Add 1 μl of compound to be tested and incubate at room temperature for 20 minutes. After 20 minutes, add 5 μl of assay buffer containing 6 nM GK-fluorescein. […] Incubate in a dark room for 2 hours at room temperature. After 2 hours read the plate using an Envision plate reader (Perkin Elmer, Waltham Mass.).

[2] = molecular target: T2, GKRP (Glucokinase Regulatory Protein) with human His-hepatic GK (Homo sapiens, UniProt Q14397); assay: biochemical
T2 sequence (Q14397 1-625): T1 sequence (Q14397 1-625)
Procedure: GKRP LC MS/MS-2 Biochemical Assay
This assay is used to directly measure the formation of ^13C-glucose-6-phosphate from ^13C-glucose by LC MS/MS. Begin by preparing the following solutions: Compound Buffer (CB): 50 mM Tris, pH 7.5/4 mM MgCl2/6% DMSO/fresh 10 mM DTT from 1M frozen stock. Enzyme Buffer (EB): 50 mM Tris, pH 7.5/4 mM MgCl2/6% DMSO/fresh 0.1% BSA/fresh 0.01% Brij-35 (10% BSA and 1% Brij-35 stock). GK (Glucokinase) Working Stock (5×): Dilute human His-hepatic GK to 30 nM in EB buffer. […] After 30 minutes add 10 μl of GK Working Stock (5×). Re-seal the plate and incubate for another 30 minutes at room temperature while mixing. After the second 30 minutes, stop the reaction by the addition of 50 μl of 100% acetonitrile, seal, and mix for 5-10 minutes. Run 10 μl of this sample through the LC MS/MS (API 3200, Applied Biosystems, Carlsbad, Calif.).

[3] = avi-tagged GKRP, GK-fluorescein, AlphaScreen beads, read-out: GK-GKRP IC50 (Binding)
[4] = 13C-glucose-6-phosphate formation, 280 nM GKRP (10×), 30 nM GK (5×), read-out: GK-GKRP EC50 (LC MS/MS-2)
[5] = read-out: GK-GKRP IC50 (Binding)
[6] = read-out: GK-GKRP EC50 (LC MS/MS-2)

Row | Compound | IC50 [1, 3] | EC50 [2, 4] | also measured
1 | CC(O)(c1ccc(N2CCN(S(=O)(=O)c3cccs3)C[C@@H]2CS(=O)(=O)c2ccccc2)cc1)C(F)(F)F (single isomer, unassigned) [Example 187 Peak#2] | 59 nM | 52 nM | 
2 | CCC(C#Cc1cc(C(O)(C(F)(F)F)C(F)(F)F)ccc1N1CCN(S(=O)(=O)c2cccs2)CC1)OC (racemic) [Example 155, 1,1,1,3,3,3-hexafluoro-2-(3-(3-methoxy-1-pentyn-1-yl)-4-(4-(2-thiophenylsulfonyl)-1-piperazinyl)phenyl)-2-propanol] | 145 nM | 112 nM | 
3 | CC(C)CN(C[C@H]1CN(S(=O)(=O)c2ccc(N)s2)CCN1c1ncc(C(O)(C(F)(F)F)C(F)(F)F)cn1)S(C)(=O)=O [Example 229, N-(((2S)-4-((5-amino-2-thiophenyl)sulfonyl)-1-(5-(2,2,2-trifluoro-1-hydroxy-1-(trifluoromethyl)ethyl)-2-pyrimidinyl)-2-piperazinyl)methyl)-N-(2-methylpropyl)methanesulfonamide] | 1 nM | 13 nM | 
4 | CS(=O)(=O)NCC#Cc1cc(C(O)(C(F)(F)F)C(F)(F)F)ccc1N1CCN(S(=O)(=O)c2cccs2)CC1 [Example 160, N-(3-(2-(4-(2-thiophenylsulfonyl)-1-piperazinyl)-5-(2,2,2-trifluoro-1-hydroxy-1-(trifluoromethyl)ethyl)phenyl)-2-propyn-1-yl)methanesulfonamide] | 783 nM | 412 nM | 
5 | C[C@H]1COCCN1C[C@H]1CN(S(=O)(=O)c2cccs2)CCN1c1ncc(C(O)(C(F)(F)F)C(F)(F)F)cn1 [Example 82, 1,1,1,3,3,3-hexafluoro-2-(2-((2S)-2-(((3S)-3-methyl-4-morpholinyl)methyl)-4-(2-thiophenylsulfonyl)-1-piperazinyl)-5-pyrimidinyl)-2-propanol] | 15 nM | 26 nM | 
6 | CC(O)(c1ccc(N2CCN(S(=O)(=O)c3cccs3)C[C@@H]2CN(CC2CCC2)S(C)(=O)=O)cc1)C(F)(F)F (mixture of isomers) [Example 218, N-(cyclobutylmethyl)-N-(((2S)-4-(2-thiophenylsulfonyl)-1-(4-(2,2,2-trifluoro-1-hydroxy-1-methylethyl)phenyl)-2-piperazinyl)methyl)methanesulfonamide] | 24 nM | 17 nM | 
7 | C[C@H]1CN(S(=O)(=O)c2cccs2)CCN1c1ncc(C(O)(C(F)(F)F)C(F)(F)F)cn1 [Example 94, 1,1,1,3,3,3-hexafluoro-2-(2-((2S)-2-methyl-4-(2-thiophenylsulfonyl)-1-piperazinyl)-5-pyrimidinyl)-2-propanol] | 362 nM | 470 nM | 
8 | CC(O)(c1ccc(N2CCN(S(=O)(=O)c3cccs3)C[C@@H]2CNc2ccccc2)cc1)C(F)(F)F (mixture of isomers) [Example 203, 1,1,1-trifluoro-2-(4-((2S)-2-((phenylamino)methyl)-4-(2-thiophenylsulfonyl)-1-piperazinyl)phenyl)-2-propanol] |  |  | IC50 ([1]; GK-GKRP IC50 (Binding)): 278 nM; EC50 ([2]; GK-GKRP EC50 (LC MS/MS-2)): 146 nM
9 | Cn1cnc(COC[C@H]2CN(S(=O)(=O)c3cccs3)CCN2c2ccc(C(C)(O)C(F)(F)F)cc2)c1 (single isomer, unassigned) [Example 119 Peak #1] | 972 nM | 235 nM | 
10 | CC(O)(c1ccc(N2CCN(S(=O)(=O)c3cccs3)C[C@@H]2CN2CCOCC2CNS(C)(=O)=O)cc1)C(F)(F)F (single isomer, unassigned) [Example 112 Peak #1] |  |  | IC50 [1, 5]: 275 nM; EC50 [2, 6]: 986 nM
11 | CC1(C)C(=O)NC(=O)N1C[C@H]1CN(S(=O)(=O)c2cccs2)CCN1c1ccc(C(C)(O)C(F)(F)F)cc1 (mixture of isomers) [Example 228, 5,5-dimethyl-1-(((2S)-4-(2-thiophenylsulfonyl)-1-(4-(2,2,2-trifluoro-1-hydroxy-1-methylethyl)phenyl)-2-piperazinyl)methyl)-2,4-imidazolidinedione] | 151 nM | 312 nM | 
12 | CC(O)(c1ccc(N2CCN(S(=O)(=O)c3cccs3)C[C@@H]2CSc2ccc(F)cc2)cc1)C(F)(F)F (mixture of isomers) [Example 190, 1,1,1-trifluoro-2-(4-((2R)-2-(((4-fluorophenyl)sulfanyl)methyl)-4-(2-thiophenylsulfonyl)-1-piperazinyl)phenyl)-2-propanol] | 30 nM | 15 nM | 
13 | Nc1ccc(S(=O)(=O)N2CCN(c3ncc(C(O)(C(F)(F)F)C(F)(F)F)cn3)[C@@H](CN3C4COCC3CC(O)C4)C2)s1 (stereo partly drawn) [Example 98 nonan-7-ol (endo), 9-(((2S)-4-((5-amino-2-thiophenyl)sulfonyl)-1-(5-(2,2,2-trifluoro-1-hydroxy-1-(trifluoromethyl)ethyl)-2-pyrimidinyl)-2-piperazinyl)methyl)-3-oxa-9-azabicyclo[3.3.1]nonan-7-ol (endo)] | 2 nM | 19 nM | 
14 | CC(O)(c1ccc(N2CCN(S(=O)(=O)c3cccs3)C[C@@H]2CN2C3COCC2C(O)C3)cc1)C(F)(F)F (stereo partly drawn) [Example 78, 8-(((2S)-4-(2-thiophenylsulfonyl)-1-(4-(2,2,2-trifluoro-1-hydroxy-1-methylethyl)phenyl)-2-piperazinyl)methyl)-3-oxa-8-azabicyclo[3.2.1]octan-6-ol] | 42 nM | 50 nM | 
15 | CC(O)(c1ccc(N2CCN(S(=O)(=O)c3cccs3)C[C@@H]2CS(=O)(=O)c2ccccc2)cc1)C(F)(F)F (single isomer, unassigned) [Example 187 Peak#1] | 41 nM | 49 nM | 
16 | CC(O)(c1ccc(N2CCN(S(=O)(=O)c3cccs3)C[C@@H]2CN2CCOC[C@@H]2CO)cc1)C(F)(F)F (single isomer, unassigned) [Example 111 Peak #1] | 64 nM | 99 nM | 
17 | CC1CS(=O)(=O)CCN1C[C@H]1CN(S(=O)(=O)c2cccs2)CCN1c1ccc(C(C)(O)C(F)(F)F)cc1 (mixture of isomers) [Example 86, 1,1,1-trifluoro-2-(4-((2S)-2-((3-methyl-1,1-dioxido-4-thiomorpholinyl)methyl)-4-(2-thiophenylsulfonyl)-1-piperazinyl)phenyl)-2-propanol] | 61 nM | 115 nM | 
18 | CC(O)(c1ccc(N2CCN(S(=O)(=O)c3cccs3)C[C@@H]2CN2CCOC[C@@H]2CO)cc1)C(F)(F)F (single isomer, unassigned) [Example 111 Peak #2] |  |  | IC50 [1, 5]: 67 nM; EC50 [2, 6]: 113 nM
19 | COC1C[C@H]2COC[C@@H](C1)N2C[C@H]1CN(S(=O)(=O)c2cccs2)CCN1c1ccc(C(C)(O)C(F)(F)F)cc1 (stereo partly drawn) [Example 109, 1,1,1-trifluoro-2-(4-((2S)-2-(((1R,5S)-7-methoxy-3-oxa-9-azabicyclo[3.3.1]non-9-yl)methyl)-4-(2-thiophenylsulfonyl)-1-piperazinyl)phenyl)-2-propanol (endo)] | 72 nM | 81 nM | 
20 | CC(C)C1C(=O)NCCN1C[C@H]1CN(S(=O)(=O)c2cccs2)CCN1c1ccc(C(C)(O)C(F)(F)F)cc1 (single isomer, unassigned) [Example 181 Peak #2] | 1 nM | 14 nM | 
